# Patent US9056111B1, “Selective efflux inhibitors and related pharmaceutical compositions and methods of treatment” (STC.UNM, priority 2011, dated 2015)
# How the values were obtained:
# 50 kinases = test: Kinase profiling (KinaseSeeker, split-luciferase); type: biochemical; settings: 10 μM
# Procedure: Since ABC transporters are ATP dependent efflux pumps and several kinase targets have been implicated in the patent literature with structurally similar scaffolds, SID 88095709 was profiled against 50 kinasesat a single concentration of 10 μM to assess promiscuity of the chemotype.^66 SID 88095709 was dissolved in DMSO and tested at a final concentration of 10 μM. Prior to initiating a profiling campaign, the compound was evaluated for false positive against split-luciferase. Profiling was done in duplicate for SID 88095709 against each kinase. The Percent Inhibition and Percent Activity Remaining arecalculated using the following equation: % Inhibition=ALUControl−ALUSample×100 ALUControl % Activity Remaining=100−% Inhibition The team has also submitted SID 88095709 and the analog SID 97301789 to the NIH National Cancer Institute to elucidate the effect of SID 88095709 on the cancer cell line panel. Discussion
# [1] = system: ABCG2 over-expressing Ig-MXP3 cells; test: Chemoreversal assay: potentiation of mitoxantrone (MTX) killing; type: cell-based
# Procedure: Cells (ABCB1, Jurkat-DNR or ABCG2 Ig-MXP3) are incubated with the test compound (3 order of magnitude concentration range) over a 3-day and 7-day period in the presence of the inhibitor and chemotherapeutic (ABCB1, DNR or ABCG2 MTX), such that a cell concentration of at least 1×10^5 cells/mL is maintained. Cell viability is determined by trypan blue staining and enumeration under light microscopy. […] A chemoreversal index (Chemoreversal 50, CR50) is determined from the viability assessment. Using a similar approach, a direct cytotoxicity index (Toxic Dose 50, TD50) is determined by assessment of cell death of cells grown in media alone.
# Cells (ABCB1, Jurkat-DNR or ABCG2 Ig-MXP3) were incubated with the test compound in a 3 order of magnitude concentration range over three and seven day periods in the presence of the inhibitor and chemotherapeutic (ABCB1, 100 nM DNR or ABCG2 30 nM MTX), such that a cell concentration of at least 1×10^5 cells mL^−1 was maintained. Cell viability was determined by trypan blue staining and enumeration under light microscopy. […] A chemoreversal index (Chemoreversal 50, CR50) was determined from the viability assessment. Using a similar approach, a direct cytotoxicity index (Toxic Dose 50, TD50) was determined by assessment of cell death of cells grown in media alone.
compound,measurement,setting,value
"O=C(c1ccoc1)N1CCN(c2cc(-c3ccco3)nc3cc(-c4ccccc4)nn23)CC1 [Compound 1, (4-(5-(furan-2-yl)-2-phenylpyrazolo[1,5-a]pyrimidin-7-yl)piperazin-1-yl)(furan-3-yl)methanone]",kinase inhibition profile,50 kinases,appears to not be a kinase inhibitor
same,selectivity in chemoreversal (cell killing assay),[1]; ABCG2 vs ABCB1,1.8 fold
same,EC50,"[1]; Ig-MXP3 cells, constant 30 nM MTX, varied inhibitor dose, read-out: CR50 ABCG2",310 nM
